From PubChem BioAssay AID2060338 (Molecular Pharmacology Branch, DTP, NCI, 2025)
“And” between values parts separate entries of the source, which are not always exact repeats. Equal entries are not always repeated.

System: 556581-035-R-J1-PDC spheroids with HUVEC/MSC, viability
Assay: Anticancer human tumor 556581-035-R-J1-PDC patient-derived ovarian carcinoma cell line growth inhibition [IpAb]
Settings: for viability, T/C: stronger effect = lower value
How it was run: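 Combinations with ipatasertib or abemaciclib were tested on tumour spheroids holding HUVEC (25%) and MSC (15%) alongside 60% malignant cells. Top concentration was at or near clinical Cmax (10 microM if undefined), descending in half-log steps.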

[1] = curve of first compound, second compound 0.1 µM
[2] = curve of first compound, second compound 0.316 µM
[3] = curve of first compound, second compound 1 µM
[4] = curve of first compound, second compound 3.16 µM
[5] = curve of first compound, second compound 10 µM
[6] = second compound 0.1 µM, first compound 0.0316 µM
[7] = second compound 0.1 µM, first compound 0.1 µM
[8] = second compound 0.1 µM, first compound 0.316 µM
[9] = second compound 0.1 µM, first compound 1 µM
[10] = second compound 0.1 µM, first compound 3.16 µM
[11] = second compound 0.1 µM, first compound 10 µM
[12] = second compound 0.316 µM, first compound 0.0316 µM
[13] = second compound 0.316 µM, first compound 0.1 µM
[14] = second compound 0.316 µM, first compound 0.316 µM
[15] = second compound 0.316 µM, first compound 1 µM
[16] = second compound 0.316 µM, first compound 3.16 µM
[17] = second compound 0.316 µM, first compound 10 µM
[18] = second compound 1 µM, first compound 0.0316 µM
[19] = second compound 1 µM, first compound 0.1 µM
[20] = second compound 1 µM, first compound 0.316 µM
[21] = second compound 1 µM, first compound 1 µM
[22] = second compound 1 µM, first compound 3.16 µM
[23] = second compound 1 µM, first compound 10 µM
[24] = second compound 3.16 µM, first compound 0.0316 µM
[25] = second compound 3.16 µM, first compound 0.1 µM
[26] = second compound 3.16 µM, first compound 0.316 µM
[27] = second compound 3.16 µM, first compound 1 µM
[28] = second compound 3.16 µM, first compound 3.16 µM
[29] = second compound 3.16 µM, first compound 10 µM
[30] = second compound 10 µM, first compound 0.0316 µM
[31] = second compound 10 µM, first compound 0.1 µM
[32] = second compound 10 µM, first compound 0.316 µM
[33] = second compound 10 µM, first compound 1 µM
[34] = second compound 10 µM, first compound 3.16 µM
[35] = second compound 10 µM, first compound 10 µM
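Further: spheroids exposed to compounds for 7 days before readout.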

Which IC50 [1] does the source give for `Cc1nc(NC(=O)N2CCCC2C(N)=O)sc1-c1ccnc(C(C)(C)C(F)(F)F)c1` (configuration not stated) + CC(C)NCC(C(=O)N1CCN(c2ncnc3c2C(C)CC3O)CC1)c1ccc(Cl)cc1 here?
The IC50 was 504 nM.

And the IC50 [2]?
Its IC50 is 206 nM.

What about the IC50 [3] of the same compound?
Its IC50 is 48.4 nM.

What about the IC50 [4] of the same compound?
Its IC50 is under 31.6 nM.

And the IC50 [5]?
The IC50 was under 31.6 nM.

And the viability, T/C [6]?
The viability, T/C was 81.8%.

And the viability, T/C [7]?
Its viability, T/C is 68.6%.

And the viability, T/C [8]?
The viability, T/C was 56.8%.

And the viability, T/C [9]?
Its viability, T/C is 38.8%.

What about the viability, T/C [10] of the same compound?
Its viability, T/C is 31%.

What about the viability, T/C [11] of the same compound?
Its viability, T/C is 11.3%.

And the viability, T/C [12]?
Its viability, T/C is 62%.

What about the viability, T/C [13] of the same compound?
Its viability, T/C is 57.6%.

And the viability, T/C [14]?
The viability, T/C was 40.3%.

What about the viability, T/C [15] of the same compound?
Its viability, T/C is 39.2%.

What about the viability, T/C [16] of the same compound?
Its viability, T/C is 33%.

And the viability, T/C [17]?
The viability, T/C was 11.3%.

What about the viability, T/C [18] of the same compound?
The viability, T/C was 48.5%.

And the viability, T/C [19]?
The viability, T/C was 53.8%.

And the viability, T/C [20]?
The viability, T/C was 39.8%.

What about the viability, T/C [21] of the same compound?
Its viability, T/C is 36.2%.

And the viability, T/C [22]?
Its viability, T/C is 27.4%.

What about the viability, T/C [23] of the same compound?
The viability, T/C was 16.2%.

And the viability, T/C [24]?
Its viability, T/C is 41.8%.

And the viability, T/C [25]?
The viability, T/C was 43.2%.

And the viability, T/C [26]?
Its viability, T/C is 43.5%.

What about the viability, T/C [27] of the same compound?
The viability, T/C was 35.6%.

And the viability, T/C [28]?
Its viability, T/C is 24.6%.

What about the viability, T/C [29] of the same compound?
Its viability, T/C is 10.7%.

What about the viability, T/C [30] of the same compound?
Its viability, T/C is 38.6%.

And the viability, T/C [31]?
The viability, T/C was 42.4%.

What about the viability, T/C [32] of the same compound?
Its viability, T/C is 35.7%.

And the viability, T/C [33]?
The viability, T/C was 27.2%.

And the viability, T/C [34]?
The viability, T/C was 22.9%.

What about the viability, T/C [35] of the same compound?
The viability, T/C was 4.11%.

How did the IC50 [1] turn out when `Cn1ncc(Cl)c1-c1cc(C(=O)NC(CN)Cc2cccc(F)c2)sc1Cl` (configuration not stated) + CC(C)NCC(C(=O)N1CCN(c2ncnc3c2C(C)CC3O)CC1)c1ccc(Cl)cc1 was run?
The IC50 was 1860 nM.

What about the IC50 [2] of the same compound?
Its IC50 is 2390 nM.

And the IC50 [3]?
The IC50 was 1900 nM.

What about the IC50 [4] of the same compound?
The IC50 was 1310 nM.

And the IC50 [5]?
Its IC50 is 1190 nM.

What about the viability, T/C [6] of the same compound?
The viability, T/C was 84%.

And the viability, T/C [7]?
The viability, T/C was 81.2%.

And the viability, T/C [8]?
Its viability, T/C is 68.5%.

What about the viability, T/C [9] of the same compound?
Its viability, T/C is 63.4%.

And the viability, T/C [10]?
Its viability, T/C is 40.9%.

What about the viability, T/C [11] of the same compound?
The viability, T/C was 0.2%.

And the viability, T/C [12]?
Its viability, T/C is 37.8%.

What about the viability, T/C [13] of the same compound?
Its viability, T/C is 79.6%.

And the viability, T/C [14]?
The viability, T/C was 67.2%.

And the viability, T/C [15]?
The viability, T/C was 56.8%.

What about the viability, T/C [16] of the same compound?
Its viability, T/C is 47.3%.

What about the viability, T/C [17] of the same compound?
The viability, T/C was 0.21%.

What about the viability, T/C [18] of the same compound?
Its viability, T/C is 70.2%.

What about the viability, T/C [19] of the same compound?
Its viability, T/C is 67.2%.

What about the viability, T/C [20] of the same compound?
Its viability, T/C is 67.6%.

And the viability, T/C [21]?
Its viability, T/C is 55.3%.

What about the viability, T/C [22] of the same compound?
The viability, T/C was 45.1%.

And the viability, T/C [23]?
The viability, T/C was 0.18%.

What about the viability, T/C [24] of the same compound?
The viability, T/C was 55.3%.

And the viability, T/C [25]?
Its viability, T/C is 74.6%.

And the viability, T/C [26]?
Its viability, T/C is 54.4%.

And the viability, T/C [27]?
Its viability, T/C is 54.2%.

And the viability, T/C [28]?
The viability, T/C was 37.8%.

And the viability, T/C [29]?
Its viability, T/C is 1.42%.

What about the viability, T/C [30] of the same compound?
Its viability, T/C is 51.8%.

And the viability, T/C [31]?
The viability, T/C was 55.7%.

And the viability, T/C [32]?
Its viability, T/C is 51.5%.

What about the viability, T/C [33] of the same compound?
Its viability, T/C is 53.4%.

And the viability, T/C [34]?
Its viability, T/C is 32.5%.

What about the viability, T/C [35] of the same compound?
Its viability, T/C is 4.77%.

What does the source list for `Cc1nc(NC(=O)N2CCCC2C(N)=O)sc1-c1ccnc(C(C)(C)C(F)(F)F)c1` (configuration not stated)?
viability, T/C (compound 0.0316 µM): 84.4% and 80.2%; viability, T/C (compound 0.1 µM): 73.3% and 72.6%; viability, T/C (compound 0.316 µM): 58.8% and 56.2%; viability, T/C (compound 1 µM): 40.9% and 42%; viability, T/C (compound 3.16 µM): 28.5% and 31.8%; viability, T/C (compound 10 µM): 9.2% and 11.3%; IC50 (curve of compound): 594 nM and 608 nM

Which IC50 [1] does the source give for `CC(=O)c1c(C)c2cnc(Nc3ccc(N4CCNCC4)cn3)nc2n(C2CCCC2)c1=O` + CC(C)NCC(C(=O)N1CCN(c2ncnc3c2C(C)CC3O)CC1)c1ccc(Cl)cc1 here?
The IC50 was over 300 nM.

What about the IC50 [2] of the same compound?
Its IC50 is over 300 nM.

And the IC50 [3]?
Its IC50 is over 300 nM.

And the IC50 [4]?
The IC50 was over 300 nM.

And the IC50 [5]?
The IC50 was under 0.949 nM.

And the viability, T/C (second compound 0.1 µM, first compound 0.000949 µM)?
The viability, T/C was 98.2%.

And the viability, T/C (second compound 0.1 µM, first compound 0.003 µM)?
Its viability, T/C is 115%.

What about the viability, T/C (second compound 0.1 µM, first compound 0.00949 µM) of the same compound?
Its viability, T/C is 95.5%.

What about the viability, T/C (second compound 0.1 µM, first compound 0.03 µM) of the same compound?
The viability, T/C was 96%.

What about the viability, T/C (second compound 0.1 µM, first compound 0.0949 µM) of the same compound?
The viability, T/C was 99%.

And the viability, T/C (second compound 0.1 µM, first compound 0.3 µM)?
The viability, T/C was 87.2%.

And the viability, T/C (second compound 0.316 µM, first compound 0.000949 µM)?
Its viability, T/C is 77.8%.

What about the viability, T/C (second compound 0.316 µM, first compound 0.003 µM) of the same compound?
The viability, T/C was 90.4%.

And the viability, T/C (second compound 0.316 µM, first compound 0.00949 µM)?
Its viability, T/C is 85.9%.

And the viability, T/C (second compound 0.316 µM, first compound 0.03 µM)?
The viability, T/C was 76%.

What about the viability, T/C (second compound 0.316 µM, first compound 0.0949 µM) of the same compound?
Its viability, T/C is 85.3%.

What about the viability, T/C (second compound 0.316 µM, first compound 0.3 µM) of the same compound?
The viability, T/C was 82.4%.

And the viability, T/C (second compound 1 µM, first compound 0.000949 µM)?
The viability, T/C was 59.9%.

What about the viability, T/C (second compound 1 µM, first compound 0.003 µM) of the same compound?
The viability, T/C was 65.7%.

What about the viability, T/C (second compound 1 µM, first compound 0.00949 µM) of the same compound?
Its viability, T/C is 68.1%.

And the viability, T/C (second compound 1 µM, first compound 0.03 µM)?
Its viability, T/C is 56.4%.

What about the viability, T/C (second compound 1 µM, first compound 0.0949 µM) of the same compound?
Its viability, T/C is 65.3%.

And the viability, T/C (second compound 1 µM, first compound 0.3 µM)?
Its viability, T/C is 63.5%.

What about the viability, T/C (second compound 3.16 µM, first compound 0.000949 µM) of the same compound?
The viability, T/C was 57.8%.

And the viability, T/C (second compound 3.16 µM, first compound 0.003 µM)?
The viability, T/C was 61.7%.

And the viability, T/C (second compound 3.16 µM, first compound 0.00949 µM)?
Its viability, T/C is 49.9%.

And the viability, T/C (second compound 3.16 µM, first compound 0.03 µM)?
The viability, T/C was 55.4%.

And the viability, T/C (second compound 3.16 µM, first compound 0.0949 µM)?
The viability, T/C was 58.1%.

And the viability, T/C (second compound 3.16 µM, first compound 0.3 µM)?
Its viability, T/C is 58%.

And the viability, T/C (second compound 10 µM, first compound 0.000949 µM)?
Its viability, T/C is 47.9%.

What about the viability, T/C (second compound 10 µM, first compound 0.003 µM) of the same compound?
Its viability, T/C is 47.4%.

What about the viability, T/C (second compound 10 µM, first compound 0.00949 µM) of the same compound?
Its viability, T/C is 48.6%.

What about the viability, T/C (second compound 10 µM, first compound 0.03 µM) of the same compound?
Its viability, T/C is 49.6%.

And the viability, T/C (second compound 10 µM, first compound 0.0949 µM)?
The viability, T/C was 45.8%.

And the viability, T/C (second compound 10 µM, first compound 0.3 µM)?
Its viability, T/C is 48.4%.
